Laboratory results from US20210161842A1, “ABSCISIC ACID FOR THE TREATMENT OF SKIN DISEASES” (priority 2018, published 2021).

Experiments:
[1] = test system: Pseudomonas aeruginosa CECT 116; test: cfu in P. aeruginosa culture (bacteriostatic/bactericide effect); type: cell-based; details: methyl jasmonate alone
Protocol: (§1) In this example several concentrations of ABA ((+)-(S)-cis,trans-abscisic acid (synonym of (S)-5-(1-hydroxy-2,6,6-trimethyl-4-oxo-2-cyclohexen-1-yl)-3-methyl-(2Z,4E)-pentadienoic acid)) (60 μg/ml, 30 μg/ml, 15 μg/ml, 5 μg/ml) were tested in a culture of P. acnes. Different amounts of the Morinda citrifolia cell lysate disclosed in Example 6 below were also tested in the same conditions (60%, 30%, 10%, 1%, 0.5%) by weight of cell lysate in the P. acnes culture. […] The same protocol was followed with a culture of S. aureus and with a culture of M. furfur. Data are shown in next Tables 1.1 to 1.6, where bacteriostatic and bactericide concentrations are listed. Underlined concentrations are the considered bacteriostatic or fungistatic amounts and that they avoid biofilm formation.
S. aureus, P. aeruginosa, P. acnes, and M. furfur subcultures were carried out from the stock by streaking onto determined medium and incubated according to the conditions specified for each of the microorganisms according to standard procedures and as indicated below: […]
Inventors also tested the effect of methyl jasmonate in P. acnes, S. aureus, M. furfur and P. aeruginosa. […] A bactericide effect was detected at 60% w/w.

[2] = test system: lesional skin biopsies from psoriasis patients; test: Inflammatory marker mRNA in full-thickness lesional skin biopsies of psoriasis patients (ex vivo, RT-PCR); type: cell-based, human; details: patient with psoriatic plaque; 8 days at 37° C.; ABA 2 μL/ml; dexamethasone as control
Protocol: (§2) In skin biopsies of patients with plaque psoriasis and from patients with atopic dermatitis, it was determined the expression of several inflammatory markers (Interleukin 23A (IL-23A), C-X-C motif chemokine 10 (CXCL10), Interleukin 8 (IL-8), Interleukin 20 (IL-20), Intercellular Adhesion Molecule 1 (ICAM-1), LNC2, DEF-4, Keratin 16 (K-16), Interferon gamma (IFNg) and Interleukin 17A (IL-17A) using commercially available PCR tools for their determinations (RT-PCR by RNeasy Fibrous Tissue Mini kit and cDNA Archive kit, Sigma, ABlprism 7900HT and TaqMan probes). As a control, dexamethasone was used.
(§3) Full-thickness lesional skin biopsies from untreated atopic dermatitis and psoriasis patients were incubated in KBM medium supplemented with Ca2Cl for 8 days at 37° C., conditions that preserve human skin lesional in vitro. The different culture conditions were media, ABA (2 μL/ml (+)-(S)-cis,trans-abscisic acid). Medium was changed every 2-3 days. After incubation biopsies were cryopreserved in OCT at −80 until total mRNA was extracted with miRNeasy kit (Qiagen) according to manufacturer's protocol. RNA quality and quantity were checked using Nanodrop. RNA was conserved in RNase free water at −80° C. until analysis. RNA was converted to cDNA using the HighCapacity cDNA Reverse Transcription Kits (Applied Biosystems). Quantitative PCR was performed using TaqMan PreAmp Master Mix Kit (Applied Bioscience) and the TaqMan Gene Expression Master Mix (Applied Bioscience) following the manufacturers' protocols. Gene expression was normalized to the house-keeping gene Glyceraldehyde 3-phosphate dehydrogenase (GADPH) and normalized for each condition as 1,8e (Ct GADPH-Ct target gene) ×10000. […]
This cell culture lysate was a callus cell lysate and it was used at a final concentration of 20 μg/ml of media (KBM medium supplemented with Ca2Cl as in the assay with ABA alone). As positive or comparative control, dexamethasone (1 μM in the culture) was used.
(§4) Patients from which biopsies were obtained included 5 psoriatic cases and 3 atopic dermatitis cases.

[3] = test system: lesional skin biopsies from atopic dermatitis patients; test: Inflammatory marker mRNA in full-thickness lesional skin biopsies of atopic dermatitis patients (ex vivo, RT-PCR); type: cell-based, human; details: patient with atopic dermatitis plaque; 8 days at 37° C.; ABA 2 μL/ml; dexamethasone as control
Protocol: as §2, §3, §4

[4] = test system: Tumoral necrosis factor alpha (TNF-α) in THP-1; test: TNF-α levels (ELISA) in THP-1 monocytes inflamed with IL-17 and LPS; type: cell-based, human; details: IL-17 3 ng/ml + LPS 10 μg/ml 6 hours, then 24 hours; lysate 200, 20, 1 and 0.1 μg/ml (all doses); dexamethasone 10 μM
Protocol: (§5) In human monocytes line THP-1 (derived from patients with acute monocytic leukemia) inflammation was induces with IL-17 (3 ng/ml of culture) and lipopolysaccharide (LPS; 10 μg/ml) for 6 hours. After that different doses of the C. longa callus lysate were added (200 μg/ml, 20 μg/ml, 1 μg/ml and 0.1 μg/ml) for 24 hours. The assay was performed in 96-well plates. Tumoral necrosis factor alpha (TNF-α) and interleukine-8 (IL-8) levels were quantified by ELISA (fluorimetry, BD OpEIA, USA). One control was an assay with only the inflammatory agents at the same concentration to induce inflammation. Another control was were dexamethasone (10 μM)+Il-17/LPS.

[5] = test system: interleukine-8 (IL-8) in THP-1; test: IL-8 levels (ELISA) in THP-1 monocytes inflamed with IL-17 and LPS; type: cell-based, human; details: IL-17 3 ng/ml + LPS 10 μg/ml 6 hours, then 24 hours; lysate 200, 20, 1 and 0.1 μg/ml (all doses); dexamethasone 10 μM
Protocol: as §5

[6] = test system: Propionibacterium acnes DSM 1897; test: cfu in P. acnes culture 24 hours after inoculum (bacteriostatic/bactericide effect); type: cell-based; details: inoc. day 320000, control 1490000
Protocol: as §1
(§6) S. aureus, P. aeruginosa, P. acnes, and M. furfur subcultures were carried out from the stock by streaking onto determined medium and incubated according to the conditions specified for each of the microorganisms according to standard procedures and as indicated below:
(§7) Further it was tested a composition comprising 30% of Morinda citrifolia cell lysate and 30×10^−4% of abscisic acid ((+)-(S)-cis,trans-abscisic acid), glycerine and preservatives (q.s. 100%) in cultures of P. acnes, S. aureus, P. aeruginosa and M. furfur. The composition was used in the microbial culture at 5% and at 10% of the culture. […]

[7] = test system: Staphylococcus aureus ATCC 6538; test: cfu in S. aureus culture 24 hours after inoculum (bacteriostatic/bactericide effect); type: cell-based; details: ABA 60 μg/ml, inoc. day 520000, control 3310000
Protocol: as §1, §6, §7

[8] = test system: Malassezia furfur ATCC 14521; test: cfu in M. furfur culture 24 hours after inoculum (fungistatic/fungicide effect); type: cell-based; details: inoc. day 420000, control 1470000
Protocol: as §1, §6, §7

[9] = test system: Candida albicans DSM 3454; test: cfu in C. albicans culture (fungistatic/fungicide effect); type: cell-based; details: ABA 60 μg/ml; inoc. day 264000, control 456500
Protocol: (§8) Following the same scheme and procedure as in Examples 1-3 above, ABA 8((+)-(S)-cis,trans-abscisic acid)) and combinations of ABA with cell culture lysates or methyl jasmonate were tested on several microorganisms forming biofilms. As before, underlined concentrations are the considered bacteriostatic or fungistatic amounts and that they avoid biofilm formation.
(§9) Biofilm generation conditions and medium for the growth of the bacteria were those recommended by the supplier of each microorganism.

[10] = test system: Streptococcus mutans DSM 20523; test: cfu in S. mutans culture (bacteriostatic/bactericide effect); type: cell-based; details: inoc. day 200000, control 109000 × 10
Protocol: as §8, §9

[11] = test system: Epidermophytum floccosum DSM 10709; test: cfu in E. floccosum culture (fungistatic effect); type: cell-based; details: ABA 60 μg/ml; inoc. day 136000, control 587500
Protocol: as §8, §9

[12] = test system: Candida albicans DSM 3454; test: C. albicans biofilm on glass coupons (and planktonic growth in suspension); type: cell-based; details: ABA 60 μg/ml; inoc. day 184000, control 460000
Protocol: (§10) Generation of representative biofilms on borosilicate glass coupons (12.7 mm diameter and a thickness of 3.7 mm) by immersion of the coupons in a suspension of each microorganism with culture medium and the compounds of interest was tested. Evaluation of the antibiofilm properties and study of adhesion, growth and viability of biofilms on the coupons was analyzed by fluorescence staining technique and visualization of live/dead microbial was done by Laser Scanning Confocal Microscopy. The sampling and analysis of coupons to determine biofilm population density was recorded as colony-forming units (cfu) per coupon. In parallel, planktonic cells quantification in suspension was also determined.
(§11) For the determination of biofilm populations the microbial population adhered to the coupon surface were quantified by dilution and plating after biofilm disaggregation process by sonication and vortex cycles. The planktonic cells (suspension) were determined by dilution and plating. The controls were, respectively the cells on coupons or in suspension after 5 days without any treatment.
(§12) Following procedure as disclosed in Example 3, particular compositions comprising ABA ((+)-(S)-cis,trans-abscisic acid) and cell lysate of a plant cell culture of Morinda citrifolia were also tested in an assay on glass coupons that also served as example of biofilm formation on abiotic surfaces. […]

[13] = test system: Epidermophytum floccosum DSM 10709; test: E. floccosum biofilm on glass coupons (and planktonic growth in suspension); type: cell-based; details: ABA 60 μg/ml; inoc. day 96667, control 374333
Protocol: as §10, §11, §12

Compound	CXCL10 mRNA, % of inhibition vs Media (normalized) [2] [%]	DEF-4 mRNA, % of inhibition vs Media (normalized) [2] [%]	ICAM-1 mRNA, % of inhibition vs Media (normalized) [2] [%]	IFNg mRNA, % of inhibition vs Media (normalized) [2] [%]	IL-8 mRNA, % of inhibition vs Media (normalized) [2] [%]	IL-17A mRNA, % of inhibition vs Media (normalized) [2] [%]	IL-20 mRNA, % of inhibition vs Media (normalized) [2] [%]	K-16 mRNA, % of inhibition vs Media (normalized) [2] [%]	LNC2 mRNA, % of inhibition vs Media (normalized) [2] [%]	CCL13 mRNA, % of inhibition vs Media (normalized) [3] [%]	CCL17 mRNA, % of inhibition vs Media (normalized) [3] [%]	CCL18 mRNA, % of inhibition vs Media (normalized) [3] [%]	CCL26 mRNA, % of inhibition vs Media (normalized) [3] [%]	FLG mRNA, % of inhibition vs Media (normalized) [3] [%]	IFNg mRNA, % of inhibition vs Media (normalized) [3] [%]	IL-13 mRNA, % of inhibition vs Media (normalized) [3] [%]	K16 mRNA, % of inhibition vs Media (normalized) [3] [%]	LOR mRNA, % of inhibition vs Media (normalized) [3] [%]	further results
CC/C=C\CC1C(=O)CCC1CC(=O)OC (centres unmarked) [methyl jasmonate]	–	–	–	–	–	–	–	–	–	–	–	–	–	–	–	–	–	–	percentage by weight in the culture media with bactericide effect [1]: 60 % w/w
C[C@@H]1C[C@H]2[C@@H]3CCC4=CC(=O)C=C[C@]4(C)[C@@]3(F)[C@@H](O)C[C@]2(C)[C@@]1(O)C(=O)CO [dexamethasone, reference compound]	8.7	−15.7	17.1	72.7	−70.1	116.9	5.5	27.8	96.3	28.4	−81.4	−9.1	−34.0	270.4	−100.0	−100.0	−39.8	189.2	TNF-α levels in relation to inflamed cells [4]: −56%; IL-8 levels in relation to inflamed cells [5]: −33%
(+)-(S)-cis,trans-abscisic acid [ABA]	140.1	−64.8	−40.6	−10.7	−71.5	9.3	−27.8	24.9	−45.7	−59.2	−70.1	−72.9	−44.2	8.3	9.2	−79.0	−69.1	−45.5	CFU ([6]; ABA 30 μg/ml): 158001 CFU; CFU ([6]; ABA 60(*) μg/ml, (*)concentration considered bactericide): 100000 CFU; CFU [7]: 585000 CFU; CFU ([8]; ABA 30 μg/ml): 529000 CFU; CFU ([8]; ABA 60(*) μg/ml, (*)considered fungicide): 256000 CFU; CFU [9]: 367500 CFU; CFU ([10]; ABA 50 μg/ml): 289500 CFU; CFU ([10]; ABA 60 μg/ml): 268000 CFU; CFU [11]: 287200 CFU; CFU on coupons [12]: 360000 CFU; CFU on coupons [13]: 243667 CFU
